Measurements published in the supplement of paper PMC10307832.

How the values were obtained:
Experiment in all cases: relative viability (nuclei count vs DMSO), 5 days (fraction); higher = more cells survive
Conditions in all cases: main component drawn
[1] = compound: CC1=C(N=C(N=C1N)[C@H](CC(=O)N)NC[C@@H](C(=O)N)N)C(=O)N[C@@H]([C@H](C2=CN=CN2)OC3C(C(C(C(O3)CO)O)O)OC4C(C(C(C(O4)CO)O)OC(=O)N)O)C(=O)N[C@H](C)[C@H]([C@H](C)C(=O)N[C@@H]([C@@H](C)O)C(=O)NCCC5=NC(=CS5)C6=NC(=CS6)C(=O)NCCC[S+](C)C)O [Bleomycin] + O=C(c1cc(Cc2n[nH]c(=O)c3ccccc23)ccc1F)N1CCN(C(=O)C2CC2)CC1 [Olaparib] (partner 8 µM)
Procedure, shortened: (§1)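 After 5 days of treatment, lung cancer cells in 1536-well plates were fixed and stained in a single step (final 0.05% Triton X-100, 1% formaldehyde, 1 ug/ml Hoechst) and their nuclei counted on 4× images. Treatment had been applied by pin tool the day after seeding as one drug alone or as a fixed anchor-drug dose with five library-drug doses (not always all listed) in √10 steps. Relative viability is the nuclei count of treated wells divided by that of vehicle wells, and values are medians of duplicate plates.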

[2] = compound: CC1=C(N=C(N=C1N)[C@H](CC(=O)N)NC[C@@H](C(=O)N)N)C(=O)N[C@@H]([C@H](C2=CN=CN2)OC3C(C(C(C(O3)CO)O)O)OC4C(C(C(C(O4)CO)O)OC(=O)N)O)C(=O)N[C@H](C)[C@H]([C@H](C)C(=O)N[C@@H]([C@@H](C)O)C(=O)NCCC5=NC(=CS5)C6=NC(=CS6)C(=O)NCCC[S+](C)C)O [Bleomycin] + Cc1cc(Nc2cc(N3CCN(C)CC3)nc(Sc3ccc(NC(=O)C4CC4)cc3)n2)n[nH]1 [Tozasertib] (partner 0.1 µM)
Procedure, shortened: as §1

[3] = compound: CC1=C(N=C(N=C1N)[C@H](CC(=O)N)NC[C@@H](C(=O)N)N)C(=O)N[C@@H]([C@H](C2=CN=CN2)OC3C(C(C(C(O3)CO)O)O)OC4C(C(C(C(O4)CO)O)OC(=O)N)O)C(=O)N[C@H](C)[C@H]([C@H](C)C(=O)N[C@@H]([C@@H](C)O)C(=O)NCCC5=NC(=CS5)C6=NC(=CS6)C(=O)NCCC[S+](C)C)O [Bleomycin] + CS(=O)(=O)CCNCc1ccc(-c2ccc3ncnc(Nc4ccc(OCc5cccc(F)c5)c(Cl)c4)c3c2)o1 [Lapatinib] (partner 2 µM)
Procedure, shortened: as §1

[4] = compound: CC1=C(N=C(N=C1N)[C@H](CC(=O)N)NC[C@@H](C(=O)N)N)C(=O)N[C@@H]([C@H](C2=CN=CN2)OC3C(C(C(C(O3)CO)O)O)OC4C(C(C(C(O4)CO)O)OC(=O)N)O)C(=O)N[C@H](C)[C@H]([C@H](C)C(=O)N[C@@H]([C@@H](C)O)C(=O)NCCC5=NC(=CS5)C6=NC(=CS6)C(=O)NCCC[S+](C)C)O [Bleomycin] + CC(C)C[C@H](NC(=O)[C@H](Cc1ccccc1)NC(=O)c1cnccn1)B(O)O [Bortezomib] (partner 0.002 µM)
Procedure, shortened: as §1

Cell Line | relative viability ([1]; first compound 0.01 µM) | relative viability ([1]; first compound 0.03162 µM) | relative viability ([1]; first compound 0.1 µM) | relative viability ([1]; first compound 0.3162 µM) | relative viability ([1]; first compound 1 µM) | relative viability ([2]; first compound 0.01 µM) | relative viability ([2]; first compound 0.03162 µM) | relative viability ([2]; first compound 0.1 µM) | relative viability ([2]; first compound 0.3162 µM) | relative viability ([2]; first compound 1 µM) | relative viability ([3]; first compound 0.01 µM) | relative viability ([3]; first compound 0.03162 µM) | relative viability ([3]; first compound 0.1 µM) | relative viability ([3]; first compound 0.3162 µM) | relative viability ([3]; first compound 1 µM) | relative viability ([4]; first compound 0.01 µM) | relative viability ([4]; first compound 0.03162 µM) | relative viability ([4]; first compound 0.1 µM) | relative viability ([4]; first compound 0.3162 µM) | relative viability ([4]; first compound 1 µM)
NCI-H522 | 0.498 | 0.627 | 0.625 | 0.404 | 0.333 | 0.538 | 0.542 | 0.504 | 0.418 | 0.346 | – | – | – | – | – | – | – | – | – | –
HCC-15 | 0.629 | 0.689 | 0.508 | 0.224 | 0.238 | 0.308 | 0.343 | 0.303 | 0.148 | 0.153 | 0.808 | 0.801 | 0.806 | 0.299 | 0.223 | 0.914 | 1.01 | 0.815 | 0.299 | 0.318
A-427 | 0.58 | 0.566 | 0.455 | 0.274 | 0.24 | 0.201 | 0.168 | 0.223 | 0.126 | 0.159 | 0.797 | 0.874 | 0.776 | 0.369 | 0.169 | 0.857 | 0.817 | 0.725 | 0.167 | 0.213
NCI-H23 | 0.205 | 0.153 | 0.171 | 0.107 | 0.107 | 0.208 | 0.268 | 0.217 | 0.161 | 0.135 | 0.419 | 0.314 | 0.268 | 0.197 | 0.165 | 0.424 | 0.374 | 0.276 | 0.165 | 0.2
NCI-H1734 | 0.505 | 0.451 | 0.377 | 0.222 | 0.148 | 0.222 | 0.223 | 0.279 | 0.199 | 0.15 | 0.802 | 0.854 | 0.691 | 0.268 | 0.184 | 0.732 | 0.664 | 0.725 | 0.239 | 0.226
NCI-H2087 | 0.366 | 0.46 | 0.442 | 0.182 | 0.145 | – | 0.198 | 0.186 | 0.14 | 0.119 | 0.642 | 0.97 | 0.798 | 0.301 | 0.235 | 0.6 | 0.785 | 0.645 | 0.133 | 0.176
PC-3 [JPC-3] | 0.932 | 1.13 | 0.825 | 0.481 | 0.486 | 0.799 | 0.813 | 0.781 | 0.537 | 0.492 | 0.455 | 0.422 | 0.473 | 0.364 | 0.314 | 0.748 | 0.926 | 0.791 | 0.446 | 0.448
NCI-H1915 | 0.2 | 0.226 | 0.166 | 0.137 | 0.11 | 0.317 | 0.347 | 0.229 | 0.162 | 0.133 | 0.669 | 0.771 | 0.385 | 0.192 | 0.15 | 0.645 | 0.823 | 0.384 | 0.179 | 0.136
NCI-H1666 | 0.65 | 0.692 | 0.644 | 0.54 | 0.599 | 0.4 | 0.462 | 0.458 | 0.391 | 0.344 | 0.607 | 0.417 | 0.344 | 0.247 | 0.288 | 0.622 | 0.427 | 0.434 | 0.31 | 0.261
HCC-366 | 0.157 | 0.134 | 0.126 | 0.0346 | 0.0334 | 0.0825 | 0.11 | 0.0755 | 0.0502 | 0.0319 | 0.52 | 0.337 | 0.212 | 0.0246 | 0.0258 | 0.736 | 0.34 | 0.293 | 0.0464 | 0.0446
SK-MES-1 | 0.528 | 0.493 | 0.439 | 0.169 | 0.153 | 0.531 | 0.542 | 0.35 | 0.15 | 0.134 | 0.506 | 0.438 | 0.407 | 0.303 | 0.255 | – | – | – | – | –
NCI-H727 | 0.732 | 0.634 | 0.612 | 0.592 | 0.624 | 0.761 | 0.578 | 0.732 | – | 0.596 | 0.718 | 0.781 | 0.695 | 0.204 | 0.472 | 0.796 | 0.853 | 0.775 | 0.303 | 0.37
RERF-LC-KJ | 0.425 | 0.385 | 0.325 | 0.162 | 0.16 | 0.311 | 0.339 | 0.297 | 0.234 | 0.193 | 0.72 | 0.702 | 0.59 | 0.354 | 0.254 | 0.887 | 0.727 | 0.625 | 0.343 | 0.334
NCI-H1623 | – | – | – | – | – | 0.393 | 0.427 | 0.417 | 0.301 | 0.32 | – | – | – | – | – | – | – | – | – | –
Calu-6 | 0.375 | 0.343 | 0.254 | 0.127 | 0.137 | – | – | – | – | – | 0.729 | 0.614 | 0.456 | 0.168 | 0.174 | 0.638 | 0.673 | 0.334 | 0.226 | 0.191
LC-2-ad | 0.574 | 0.431 | 0.287 | 0.235 | 0.219 | 0.395 | 0.354 | 0.34 | 0.247 | 0.276 | 0.674 | 0.264 | 0.286 | 0.127 | 0.105 | 0.943 | 0.624 | 0.316 | 0.127 | 0.0954
